Source: US12012421B2, “Solid forms of [(1S)-1-[(2S,4R,5R)-5-(5-amino-2-oxo-thiazolo[4,5-d]pyrimidin-3-yl)-4-hydroxy-tetrahydrofuran-2-yl]propyl] acetate” (Hoffmann-La Roche Inc., priority 2018, dated 2024)
Read-outs that look alike come from different tables or passages of the source. One block for each compound: values may come before it.

Tests used:
[1] = Physical stability of solid forms in stability chamber, solid form checked by XRPD; assay type: physicochemical; conditions: for Physical stability (solid form by XRPD compared with initial solid form): 40° C./75%-RH, 1 month; for Stability compared with Form Amorphous: comparison in words, accelerated storage 40° C./75%-RH
Method: 40 mg compound (I) in different solid forms were stored in a stability chamber with temperature and humidity controlled at 40° C. and 75%-RH, respectively. After 1 month, the samples were analyzed by XRPD to check their solid form and compared with their initial solid form.

[2] = Apparent solubility study in bio-relevant media; assay type: physicochemical; conditions: for Solubility: 25° C.; for Solubility / solubility at 24 h: 24 hours; for solubility at 24 h: 25 °C, thermodynamic from solid; for Apparent solubility compared with Form Amorphous: comparison in words
Method: Apparent solubility was determined by suspending 5 mg of compound (I) in different bio-relevant media including pH buffers, SGF, FaSSIF, and FeSSIF. The suspensions were equilibrated at 25° C. for 24 hours. The suspensions were then filtered through a 0.22 μm PVDF filter into a 2-mL HPLC vial. The quantitation of the filtrate was conducted by HPLC with reference to a standard solution.

[3] = Single dose PK (SDPK) study, oral suspension; assay type: in vivo, Wistar Han rat; conditions: for Cmax / Tmax: male, plasma, Wistar Han rat, n = 5; for Cmax: read-out: Cmax of Compound (I) (double prodrug) in plasma; for Tmax: read-out: Tmax of Compound (I) (double prodrug) in plasma
Method: Five male Wistar Han rats were administered a single oral dose of 100 or 200 mg/kg of compound (I) (either Form A or Form C). Drug was administered as a suspension in 2% klucel, 0.1% polysorbate 80 and 0.1% parabens in water. Samples were taken at various times up to 24 h and plasma was analysed for compound (I) (double prodrug), compound (Ia) (single prodrug) and compound (Ib) (single prodrug) and compound (III) (active Form).

[4] = Solid form conversion in aqueous compositions; assay type: physicochemical
Method: Form A as prepared in Example 10 was suspended in water to form a slurry at room temperature for 2 hours to afford Form B, then the solid was collected by filtration and dried under vacuum. Depending on the solvation status Form B can be a solvate, a hydrate or a polymorph of compound (I).

Physical stability (solid form by XRPD compared with initial solid form) ([1]; listed as Example 11, Form B of compound (I)): no solid form change | Stability compared with Form Amorphous [1]: better stability | Solubility ([2]; FaSSIF, listed as Example 11, Form B of compound (I)): 3820 µg/mL | Solubility ([2]; FeSSIF, listed as Example 11, Form B of compound (I)): 4130 µg/mL | Solubility ([2]; SGF, listed as Example 11, Form B of compound (I)): >10000 µg/mL | Solubility ([2]; pH1 buffer, listed as Example 11, Form B of compound (I)): >10000 µg/mL | Solubility ([2]; pH3 buffer, listed as Example 11, Form B of compound (I)): 6920 µg/mL | Solubility ([2]; pH5 buffer, listed as Example 11, Form B of compound (I)): 3350 µg/mL | Solubility ([2]; pH7 buffer, listed as Example 11, Form B of compound (I)): 3400 µg/mL | Solubility ([2]; pH9 buffer, listed as Example 11, Form B of compound (I)): 3550 µg/mL | Solid form conversion / stability in aqueous environment [4]: better stability in aqueous environment
SMILES: CC[C@H](OC(C)=O)[C@@H]1C[C@@H](O)[C@H](n2c(=O)sc3cnc(N)nc32)O1 [Form B of compound (I), [(1S)-1-[(2S,4R,5R)-5-(5-amino-2-oxo-thiazolo[4,5-d]pyrimidin-3-yl)-4-hydroxy-tetrahydrofuran-2-yl]propyl] acetate]

Physical stability (solid form by XRPD compared with initial solid form) ([1]; listed as Example 2, Form C of compound (I)): no solid form change | Stability compared with Form Amorphous [1]: significantly improved stability | Stability compared with Form Amorphous ([1]; listed as Form C): better stability | Solubility ([2]; FaSSIF, listed as Example 2, Form C of compound (I)): 2190 µg/mL | Solubility ([2]; FeSSIF, listed as Example 2, Form C of compound (I)): 2780 µg/mL | Solubility ([2]; SGF, listed as Example 2, Form C of compound (I)): >10000 µg/mL | Apparent solubility compared with Form Amorphous [2]: comparable apparent solubility | Solubility ([2]; pH1 buffer, listed as Example 2, Form C of compound (I)): >10000 µg/mL | Solubility ([2]; pH3 buffer, listed as Example 2, Form C of compound (I)): 4980 µg/mL | Solubility ([2]; pH5 buffer, listed as Example 2, Form C of compound (I)): 2240 µg/mL | Solubility ([2]; pH7 buffer, listed as Example 2, Form C of compound (I)): 2190 µg/mL | Solubility ([2]; pH9 buffer, listed as Example 2, Form C of compound (I)): 2320 µg/mL | Cmax ([3]; PO 200 mg/kg): 259 ng/mL | Tmax ([3]; PO 200 mg/kg): 19.8 min
SMILES: CC[C@H](OC(C)=O)[C@@H]1C[C@@H](O)[C@H](n2c(=O)sc3cnc(N)nc32)O1 [Form C of compound (I), [(1S)-1-[(2S,4R,5R)-5-(5-amino-2-oxo-thiazolo[4,5-d]pyrimidin-3-yl)-4-hydroxy-tetrahydrofuran-2-yl]propyl] acetate]

Physical stability (solid form by XRPD compared with initial solid form) ([1]; listed as Example 12, Form G of compound (I)): no solid form change | Stability compared with Form Amorphous [1]: improved stability | Stability compared with Form Amorphous ([1]; listed as Form G): better stability | Solubility ([2]; FaSSIF, listed as Example 12, Form G of compound (I)): 2490 µg/mL | Solubility ([2]; FeSSIF, listed as Example 12, Form G of compound (I)): 2790 µg/mL | Solubility ([2]; SGF, listed as Example 12, Form G of compound (I)): >10000 µg/mL | Apparent solubility compared with Form Amorphous [2]: comparable apparent solubility | Solubility ([2]; pH1 buffer, listed as Example 12, Form G of compound (I)): >10000 µg/mL | Solubility ([2]; pH3 buffer, listed as Example 12, Form G of compound (I)): 6440 µg/mL | Solubility ([2]; pH5 buffer, listed as Example 12, Form G of compound (I)): 3750 µg/mL | Solubility ([2]; pH7 buffer, listed as Example 12, Form G of compound (I)): 3700 µg/mL | Solubility ([2]; pH9 buffer, listed as Example 12, Form G of compound (I)): 3640 µg/mL
SMILES: CC[C@H](OC(C)=O)[C@@H]1C[C@@H](O)[C@H](n2c(=O)sc3cnc(N)nc32)O1 [Form G of compound (I), [(1S)-1-[(2S,4R,5R)-5-(5-amino-2-oxo-thiazolo[4,5-d]pyrimidin-3-yl)-4-hydroxy-tetrahydrofuran-2-yl]propyl] acetate]

The next lines start with the compound.

SMILES: CC[C@H](OC(C)=O)[C@@H]1C[C@@H](O)[C@H](n2c(=O)sc3cnc(N)nc32)O1 [Form A of compound (I), [(1S)-1-[(2S,4R,5R)-5-(5-amino-2-oxo-thiazolo[4,5-d]pyrimidin-3-yl)-4-hydroxy-tetrahydrofuran-2-yl]propyl] acetate]
Physical stability (solid form by XRPD compared with initial solid form) ([1]; listed as Example 10, Form A of compound (I)): no solid form change | Stability compared with Form Amorphous [1]: better stability | Solubility ([2]; FaSSIF, listed as Example 10, Form A of compound (I)): 6330 µg/mL | Solubility ([2]; FeSSIF, listed as Example 10, Form A of compound (I)): 7930 µg/mL | Solubility ([2]; SGF, listed as Example 10, Form A of compound (I)): >16360 µg/mL | Solubility ([2]; pH1 buffer, listed as Example 10, Form A of compound (I)): >16280 µg/mL | Solubility ([2]; pH3 buffer, listed as Example 10, Form A of compound (I)): 12870 µg/mL | Solubility ([2]; pH5 buffer, listed as Example 10, Form A of compound (I)): 6390 µg/mL | Solubility ([2]; pH7 buffer, listed as Example 10, Form A of compound (I)): 6240 µg/mL | Solubility ([2]; pH9 buffer, listed as Example 10, Form A of compound (I)): 6380 µg/mL | Conversion rate to the single prodrug in vivo ([3]; Form A at 100 mg/kg compared with Form C at 200 mg/kg, in words): faster conversion rate | Cmax ([3]; PO 100 mg/kg): 563 ng/mL | Tmax ([3]; PO 100 mg/kg): 90 min

SMILES: CC[C@H](OC(C)=O)[C@@H]1C[C@@H](O)[C@H](n2c(=O)sc3cnc(N)nc32)O1 [Form Amorphous of compound (I), [(1S)-1-[(2S,4R,5R)-5-(5-amino-2-oxo-thiazolo[4,5-d]pyrimidin-3-yl)-4-hydroxy-tetrahydrofuran-2-yl]propyl] acetate]
Physical stability (solid form by XRPD compared with initial solid form) ([1]; listed as Example 1, Form Amorphous of compound (I)): solid form change | Tendency to form change ([1]; general finding in words): prone to crystallization | Solubility ([2]; FaSSIF, listed as Example 1, Form Amorphous of compound (I)): 6930 µg/mL | Solubility ([2]; FeSSIF, listed as Example 1, Form Amorphous of compound (I)): 7350 µg/mL | solubility at 24 h ([2]; SGF, simulated gastric fluid): > 10000 µg/mL | solubility at 24 h ([2]; pH 1 buffer, pH 1, simulated gastric fluid, pH1 buffer): > 10000 µg/mL | Solubility ([2]; pH3 buffer, listed as Example 1, Form Amorphous of compound (I)): 9570 µg/mL | Solubility ([2]; pH5 buffer, listed as Example 1, Form Amorphous of compound (I)): 3830 µg/mL | Solubility ([2]; pH7 buffer, listed as Example 1, Form Amorphous of compound (I)): 4050 µg/mL | Solubility ([2]; pH9 buffer, listed as Example 1, Form Amorphous of compound (I)): 5030 µg/mL
